Reference: patent US8524744B2, “Arylamine ketones, their preparation methods, the pharmaceutical composition containing them and their use” (Institute of Mataria Medica, Chinese Academy of Medical …, priority 2004, dated 2013)

Test system: polymorphonuclear leucocytes from rat pleural cavity
Experiment: release of β-glucuronidase by polymorphonuclear leucocytes from rat pleural cavity in vitro (PAF as irritant)
Type: cell-based
Settings: Dose 1 × 10^−4 mol · L^−1; Irritant 2 × 10^−7 mol · L^−1
Procedure: 1% carrageenan was injected into the right pleural cavity of Wistar rat to induce polymorphonuclear leucocytes. The cells was suspended in Dulbecoo's buffer at the concentration of 2.5×10^6 cells·ml^1. The fluid containing the compound or solvent and 250 μl of cells suspension were added in test tube and incubated in 37° C. waterbath for 15 min. Then 2.5 μl of cytochalasin B (1×10^−3 mol·L^−1) was added and the reaction was continued for 5 min. Then 2.5 μl of PAF (1×10^−4 mol·L^−1) was added and for another 5 min. The test tubes were put into ice bath to stop the reaction. The supernatant was isolated and used as the β-glucuronidase release fluid. 25 μl of the enzyme fluid, 25 μl of phenolphthalein-glucuronic acid (2.5 mmol·L^−1) and 100 μl of acetic acid buffer (0.1 mol·L^−1) were added into each well of 96-well plate which was placed into incubater and kept at 37° C.3 for 18 hr. 150 μl of NaOH (0.3 mol·L^−1) was added in each well to cease the reaction and the optical density was read at 550 nm.

Row | Molecule | Inhibition (%) of β-glucuronidase release [%]
1 | CCOC(=O)N1CCN(CCC(=O)C=Cc2ccc3c(c2)OCO3)CC1.Cl [Compound 32, 5-[(N4-Ethoxycarbonyl)piperazyl]-1-(3,4-methylenedioxyphenyl)-1-penten-3-one hydrochloride] | 46.1

Same assay, conditions: Dose 1 × 10^−5 mol · L^−1; Irritant 1 × 10^−6 mol · L^−1

Row | Molecule | Inhibition (%) of β-glucuronidase release [%]
2 | CCOc1cc(C=CC(=O)CCN2CCN(Cc3ccc4c(c3)OCO4)CC2)ccc1OC.Cl [Compound 55, 5-[N4-(3,4-Methylenedioxy(benzyl)piperazyl)]-1-(3-ethoxy-4-methoxy-phenyl)-1-penten-3-one hydrochloride] | 27.24
3 | CCOC(=O)C1CCN(CCC(=O)C=Cc2cc(OC)c(OC)c(OC)c2)CC1.Cl [Compound 6, 5-[(4-Ethoxycarbonyl)piperidyl]-1-(3,4,5-trimethoxyphenyl)-1-penten-3-one hydrochloride] | 39.53
4 | CC(CN1CCN(Cc2ccc3c(c2)OCO3)CC1)C(=O)C=Cc1ccc(Cl)cc1.Cl (stereo not drawn) [Compound 53, 5-[N4-(3,4-Methylenedioxy(benzyl)piperazyl)]-1-(4-chlorophenyl)-1-penten-4-methyl-3-one hydrochloride] | 37.82
5 | CCCOc1ccc(C=CC(=O)CCN2CCC(Cc3ccccc3)CC2)cc1.Cl [Compound 22b, 5-[(4-Benzyl)piperidyl]-1-(4-propoxyphenyl)-1-penten-3-one hydrochloride] | 41.79
6 | 5-[(N4-Ethoxycarbonyl)piperazyl]-1-(4-trifluoromethylphenyl)-1-penten-3-one hydrochloride [Compound 29] | 22.22
7 | COc1ccc(C=CC(=O)CCN2CC(C)OC(C)C2)cc1.Cl (stereo not drawn) [Compound 39c, 5-(2,6-Dimethylmorpholinyl)-1-(4-methoxyphenyl)-1-penten-3-one hydrochloride] | 28.66
8 | COc1ccc(C=CC(=O)CCN2CCN(Cc3ccccc3)CC2)cc1.Cl [Compound 49, 5-[(N4-Benzyl)piperazyl]-1-(4-methoxyphenyl)-1-penten-3-one hydrochloride] | 43.19
9 | CCOC(=O)N1CCN(CCC(=O)C=Cc2ccc(OC)cc2)CC1.Cl [Compound 34d, 5-[(N4-Ethoxycarbonyl)piperazyl]-1-(4-methoxyphenyl)-1-penten-3-one hydrochloride] | 62.64
10 | CCOC(=O)C1CCN(CCC(=O)C=Cc2ccc(Cl)cc2Cl)CC1.Cl [Compound 10, 5-[(4-Ethoxycarbonyl)piperidyl]-1-(2,4-dichlorophenyl)-1-penten-3-one hydrochloride] | 51.07

Same assay, conditions: Dose 1 × 10^−5 mol · L^−1; Irritant 1 × 10^−7 mol · L^−1

Row | Molecule | Inhibition (%) of β-glucuronidase release [%]
11 | CCOC(=O)N1CCN(CCC(=O)C=Cc2ccc(O)cc2)CC1.Cl [Compound 24, 5-[(N4-Ethoxycarbonyl)piperazyl]-1-(4-hydroxyphenyl)-1-penten-3-one hydrochloride] | 120.85
12 | CCOC(=O)C1CCN(CCC(=O)C=Cc2ccc(O)c(OC)c2)CC1.Cl [Compound 8, 5-[(4-Ethoxycarbonyl)piperidyl]-1-(3-methoxy-4-hydroxyphenyl)-1-penten-3-one hydrochloride] | 158.42

Same assay, conditions: Dose 1 × 10^−5 mol · L^−1; Irritant 2 × 10^−7 mol · L^−1

Row | Molecule | Inhibition (%) of β-glucuronidase release [%]
13 | Cl.O=C(C=Cc1ccc(F)cc1)CCN1CCN(Cc2ccccc2)CC1 [Compound 44a, 5-[(N4-Benzyl)piperazyl]-1-(4-fluorophenyl)-1-penten-3-one hydrochloride] | 52.46
14 | Cl.O=C(C=Cc1ccc(C(F)(F)F)cc1)CCN1CCN(Cc2ccccc2)CC1 [Compound 44b, 5-[(N4-Benzyl)piperazyl]-1-(4-trifluoromethylphenyl)-1-penten-3-one hydrochloride] | 57.93

Same assay, conditions: Dose 2 × 10^−6 mol · L^−1; Irritant 1 × 10^−7 mol · L^−1

Row | Molecule | Inhibition (%) of β-glucuronidase release [%]
15 | CCOC(=O)C1CCN(CCC(=O)C=Cc2ccc(C#N)cc2)CC1.Cl [Compound 2, 5-[(4-Ethoxycarbonyl)piperidyl]-1-(4-cyanophenyl)-1-penten-3-one hydrochloride] | 126.36
